The assay concerns MC38 cells. As to the kind of experiment: mGI-101 and DMXAA in MC38 allotransplanted tumor model. The assay is classed as in vivo, C57BL/6 mice. As to conditions: day 60 after tumor injection; mGI-101 6 mg/kg i.p. BIW, DMXAA 450 μg I.T.; 5 mice per group. How it is done:
In order to establish an allotransplanted tumor model, 5×10^5 of MC38 cells were subcutaneously injected into C57BL/6 mice. The tumor grafts of the mice were identified to be a size of 100-200 mm^3 about day 10 after cell inoculation, and the mice were assigned, each group including 5 mice.
The size of the MC38 solid cancer was measured three times a week during the observation period, and the major axis (maximum length, L) and minor axis (perpendicular width, W) of the tumor were measured using a caliper, and the tumor volume (TV) was calculated by substituting them into the following equation, and once the tumor size was no less than 2 cm, the mice were sacrificed. TV (mm^3)=(W^2×L)/2 [Equation 1]

The results in this text go back to US11857601B2, “Pharmaceutical composition for cancer treatment comprising fusion protein including IL-2 protein and CD80 protein and anticancer drug” (GI INNOVATION, INC., priority 2020, dated 2024).

Regarding `Cc1ccc2c(=O)c3cccc(CC(=O)O)c3oc2c1C` [DMXAA, reference compound], the survival rate is given as 60%.
